Read-outs that look alike come from different tables or passages of the source.
Tests used:
Assay type in all cases: biochemical
[1] = test system: endogenous proteases; test: Stability of synthetic BNP-32 spiked into normal human plasma with protease inhibitors (chemiluminescent BNP immunoassay); details: for efficacy in stabilizing BNP (in words): Table 11, inhibitors at usual functional concentrations
[2] = test system: endogenous proteases; test: Stability of spiked synthetic BNP in normal human serum with inhibitors; details: HS; for Recovery versus 1st run: 48 hours at 4° C.
Description: (§1) To generate an analytical signal to quantify the BNP concentration in the sample, two monoclonal BNP-specific antibodies (Shionogi & Co., LTD, Osaka, Japan; EP542255A1/B1; JP 3297392) were used. The first antibody was labeled with acridinium ester (AE) and the second antibody was labeled with biotin. The two antibodies bind to BNP molecules present in the plasma samples to form a complex; the formed complex was captured by paramagnetic particles (PMP) coated with streptavidin. PMP was separated by magnetic field and washed to remove non-specifically bound material. BNP-AE complexes retained on the PMP were treated with alkaline solution to produce a chemiluminescent signal, which was proportional to the amount of BNP captured; the signal was measured in relative light units or “RLU”. The assay was carried out on an automated chemiluminescent system ADIVA:Centaur™ (Bayer Corporation, Tarrytown, N.Y.) using BNP detection reagents, such as have been described. (e.g., B. Bluestein et al., 2002, “Development of an automated test for BNP as an aid in the diagnosis and evaluation of CHF on the Bayer ADVIA Centaur ACS”, Clinical Chemistry, 48(S6):A85, Abstract C37).
(§2) Experiments were performed to assess BNP stabilization in animal serum and human serum versus human plasma. Tables 9 and 10 below illustrate the efficacy of PPACK and leupeptin as BNP stabilizers in three different media, namely, bovine fetal serum (Biocell Labs, Rancho Dominguez, Calif.), normal human serum (Biocell Labs), and normal human plasma (Intergen).

[3] = test system: endogenous proteases; test: Stability of spiked synthetic BNP in bovine fetal serum with inhibitors; details: BFS; for Recovery versus 1st run: 48 hours at 4° C.
Description: as §1, §2

[4] = IHPP + 10 ng/ml BNP, 4° C., AEBSF 200 μg/ml, antipain 100 μg/ml, benzamidine 14 mM, PPACK 50 μg/ml, or all four
[5] = HP, spiked synthetic BNP, leupeptin 0.5 μg/ml
[6] = HP, spiked synthetic BNP, leupeptin 5 μg/ml
[7] = HP, spiked synthetic BNP, leupeptin 50 μg/ml
[8] = IHP (EDTA) with synthetic BNP-32 added, each inhibitor 50 μg/ml
[9] = Plasma A, spiked synthetic BNP, inhibitor 0.62 μg/ml
[10] = Plasma A, spiked synthetic BNP, inhibitor 1.85 μg/ml
[11] = Plasma A, spiked synthetic BNP, inhibitor 5.56 μg/ml
[12] = Plasma A, spiked synthetic BNP, inhibitor 16.7 μg/ml
[13] = Plasma A, spiked synthetic BNP, inhibitor 50 μg/ml

Q: N=C(N)c1ccccc1 [benzamidine] was tested. Which “% Recovery vs 1st run (Time 0)” value [1] did it give?
A: The value was 82.6%.

Q: What about the “BNP, 1st run (Time 0)” value [1] of the same compound?
A: The value was 830.6 pg/mL.

Q: What about the “BNP, 3 hours at 4° C.” value [1] of the same compound?
A: Its value is 806.8 pg/mL.

Q: What about the “BNP, 17 hours at 4° C.” value [1] of the same compound?
A: Its value is 860.5 pg/mL.

Q: And the “BNP, 40 hours at 4° C.” value [1]?
A: The value was 813.8 pg/mL.

Q: And the “BNP, 6 days at 4° C.” value [1]?
A: Its value is 686.3 pg/mL.

Q: What about the “1 week (RLU)” value [1, 4] of the same compound?
A: The value was 2568730 RLU.

Q: What about the “2 weeks (RLU)” value [1, 4] of the same compound?
A: The value was 238972 RLU.

Q: And the “4 weeks % Signal Recovered” value [1, 4]?
A: The value was 0.8%.

Q: What about the “4 weeks (RLU)” value [1, 4] of the same compound?
A: The value was 30024 RLU.

Q: And the “72 hrs (RLU)” value [1, 4]?
A: Its value is 3342787 RLU.

Q: What about the “22 days (RLU)” value [1, 4] of the same compound?
A: The value was 108308 RLU.

Q: What about the “Day 0 (RLU)” value [1, 4] of the same compound?
A: Its value is 3927159 RLU.

Q: What about the “efficacy in stabilizing BNP (in words)” value [1] of the same compound?
A: The value was “intermediate efficacy”.

Q: Which results are given for CC(=O)N[C@@H](CC(C)C)C(=O)N[C@@H](CC(C)C)C(=O)N[C@H](C=O)CCCNC(=N)N [leupeptin, acetyl-leu-leu-arginal]?
A: % Recovery vs 1st run (Time 0) [1]: 105.5%; BNP, 1st run (Time 0) [1]: 792.0 pg/mL; BNP, 3 hours at 4° C. [1]: 896.9 pg/mL; BNP, 17 hours at 4° C. [1]: 864.4 pg/mL; BNP, 40 hours at 4° C. [1]: 873.7 pg/mL; BNP, 6 days at 4° C. [1]: 835.9 pg/mL; BNP, 3 hours at 4° C. before freezing [1, 5]: 751.3 pg/mL; BNP, 24 hours at 4° C. before freezing [1, 5]: 696.1 pg/mL; BNP, 48 hours at 4° C. before freezing [1, 5]: 672.6 pg/mL; BNP, frozen w/o storage at 4° C. [1, 5]: 765.2 pg/mL; Recovery versus 1st run ([1]; HP, spiked synthetic BNP, leupeptin 0.5 μg/ml, 48 hours at 4° C.): 87.9%; BNP, 3 hours at 4° C. before freezing [1, 6]: 828.3 pg/mL; BNP, 24 hours at 4° C. before freezing [1, 6]: 807.5 pg/mL; BNP, 48 hours at 4° C. before freezing [1, 6]: 784.4 pg/mL; BNP, frozen w/o storage at 4° C. [1, 6]: 679.0 pg/mL; Recovery versus 1st run ([1]; HP, spiked synthetic BNP, leupeptin 5 μg/ml, 48 hours at 4° C.): 115.5%; BNP, 3 hours at 4° C. before freezing [1, 7]: 795.6 pg/mL; BNP, 24 hours at 4° C. before freezing [1, 7]: 763.0 pg/mL; BNP, 48 hours at 4° C. before freezing [1, 7]: 798.3 pg/mL; BNP, frozen w/o storage at 4° C. [1, 7]: 867.2 pg/mL; Recovery versus 1st run ([1]; HP, spiked synthetic BNP, leupeptin 50 μg/ml, 48 hours at 4° C.): 92.1%; Amount of BNP Present After 24 hr/4° C. [1, 8]: 2503.78; Amount of BNP Present After 90 hr/4° C. [1, 8]: 2133.75; Amount of BNP Present Before Storage, Day 0 [1, 8]: 2290.08; BNP Amount % Change ([1]; IHP with synthetic BNP-32 added, each inhibitor 50 μg/ml, 90 hr/4° C. vs Day 0): −6.8%; BNP, 1st run (Time 0) [1, 9]: 847.4 pg/mL; BNP, 3 hours at 4° C. [1, 9]: 863.3 pg/mL; BNP, 17 hours at 4° C. [1, 9]: 776.1 pg/mL; BNP, 40 hours at 4° C. [1, 9]: 721.6 pg/mL; BNP, 6 days at 4° C. [1, 9]: 373.6 pg/mL; Recovery versus 1st run ([1]; Plasma A, spiked synthetic BNP, inhibitor 0.62 μg/ml, 6 days at 4° C.): 44.1%; BNP, 1st run (Time 0) [1, 10]: 841.7 pg/mL; BNP, 3 hours at 4° C. [1, 10]: 873.5 pg/mL; BNP, 17 hours at 4° C. [1, 10]: 859.4 pg/mL; BNP, 40 hours at 4° C. [1, 10]: 795.5 pg/mL; BNP, 6 days at 4° C. [1, 10]: 604.7 pg/mL; Recovery versus 1st run ([1]; Plasma A, spiked synthetic BNP, inhibitor 1.85 μg/ml, 6 days at 4° C.): 71.8%; BNP, 1st run (Time 0) [1, 11]: 879.3 pg/mL; BNP, 3 hours at 4° C. [1, 11]: 900.4 pg/mL; BNP, 17 hours at 4° C. [1, 11]: 847.2 pg/mL; BNP, 40 hours at 4° C. [1, 11]: 808.0 pg/mL; BNP, 6 days at 4° C. [1, 11]: 722.8 pg/mL; Recovery versus 1st run ([1]; Plasma A, spiked synthetic BNP, inhibitor 5.56 μg/ml, 6 days at 4° C.): 82.2%; BNP, 1st run (Time 0) [1, 12]: 886.7 pg/mL; BNP, 3 hours at 4° C. [1, 12]: 849.8 pg/mL; BNP, 17 hours at 4° C. [1, 12]: 904.5 pg/mL; BNP, 40 hours at 4° C. [1, 12]: 903.1 pg/mL; BNP, 6 days at 4° C. [1, 12]: 808.2 pg/mL; Recovery versus 1st run ([1]; Plasma A, spiked synthetic BNP, inhibitor 16.7 μg/ml, 6 days at 4° C.): 91.1%; BNP, 1st run (Time 0) [1, 13]: 792.0 pg/mL; BNP, 3 hours at 4° C. [1, 13]: 896.9 pg/mL; BNP, 17 hours at 4° C. [1, 13]: 864.4 pg/mL; BNP, 40 hours at 4° C. [1, 13]: 873.7 pg/mL; BNP, 6 days at 4° C. [1, 13]: 835.9 pg/mL; Recovery versus 1st run ([1]; Plasma A, spiked synthetic BNP, inhibitor 50 μg/ml, 6 days at 4° C.): 105.5%; BNP, 3 hours at 4° C. before freezing ([2]; leupeptin 0.5 μg/ml): 129.0 pg/mL; BNP, 24 hours at 4° C. before freezing ([2]; leupeptin 0.5 μg/ml): 45.1 pg/mL; BNP, 48 hours at 4° C. before freezing ([2]; leupeptin 0.5 μg/ml): 11.4 pg/mL; BNP, frozen w/o storage at 4° C. ([2]; leupeptin 0.5 μg/ml): 227.7 pg/mL; Recovery versus 1st run ([2]; leupeptin 0.5 μg/ml): 5.0%; BNP, 3 hours at 4° C. before freezing ([2]; leupeptin 5 μg/ml): 203.0 pg/mL; BNP, 24 hours at 4° C. before freezing ([2]; leupeptin 5 μg/ml): 135.6 pg/mL; BNP, 48 hours at 4° C. before freezing ([2]; leupeptin 5 μg/ml): 74.3 pg/mL; BNP, frozen w/o storage at 4° C. ([2]; leupeptin 5 μg/ml): 311.1 pg/mL; Recovery versus 1st run ([2]; leupeptin 5 μg/ml): 23.9%; BNP, 3 hours at 4° C. before freezing ([2]; leupeptin 50 μg/ml): 274.2 pg/mL; BNP, 24 hours at 4° C. before freezing ([2]; leupeptin 50 μg/ml): 217.5 pg/mL; BNP, 48 hours at 4° C. before freezing ([2]; leupeptin 50 μg/ml): 156.6 pg/mL; BNP, frozen w/o storage at 4° C. ([2]; leupeptin 50 μg/ml): 297.9 pg/mL; Recovery versus 1st run ([2]; leupeptin 50 μg/ml): 52.6%; BNP, 3 hours at 4° C. before freezing ([3]; leupeptin 0.5 μg/ml): 639.6 pg/mL; BNP, 24 hours at 4° C. before freezing ([3]; leupeptin 0.5 μg/ml): 537.2 pg/mL; BNP, 48 hours at 4° C. before freezing ([3]; leupeptin 0.5 μg/ml): 424.9 pg/mL; BNP, frozen w/o storage at 4° C. ([3]; leupeptin 0.5 μg/ml): 712.9 pg/mL; Recovery versus 1st run ([3]; leupeptin 0.5 μg/ml): 59.6%; BNP, 3 hours at 4° C. before freezing ([3]; leupeptin 5 μg/ml): 672.2 pg/mL; BNP, 24 hours at 4° C. before freezing ([3]; leupeptin 5 μg/ml): 601.7 pg/mL; BNP, 48 hours at 4° C. before freezing ([3]; leupeptin 5 μg/ml): 498.9 pg/mL; BNP, frozen w/o storage at 4° C. ([3]; leupeptin 5 μg/ml): 845.0 pg/mL; Recovery versus 1st run ([3]; leupeptin 5 μg/ml): 59.0%; BNP, 3 hours at 4° C. before freezing ([3]; leupeptin 50 μg/ml): 751.1 pg/mL; BNP, 24 hours at 4° C. before freezing ([3]; leupeptin 50 μg/ml): 707.0 pg/mL; BNP, 48 hours at 4° C. before freezing ([3]; leupeptin 50 μg/ml): 614.5 pg/mL; BNP, frozen w/o storage at 4° C. ([3]; leupeptin 50 μg/ml): 810.5 pg/mL; Recovery versus 1st run ([3]; leupeptin 50 μg/ml): 75.8%

Q: What does the source list for Aprotinin?
A: % Recovery vs 1st run (Time 0) [1]: 21.1%; BNP, 1st run (Time 0) [1]: 792.4 pg/mL; BNP, 3 hours at 4° C. [1]: 849.7 pg/mL; BNP, 17 hours at 4° C. [1]: 680.0 pg/mL; BNP, 40 hours at 4° C. [1]: 490.9 pg/mL; BNP, 6 days at 4° C. [1]: 167.4 pg/mL; efficacy in stabilizing BNP (in words) [1]: low efficacy

— patent US20040067889A1, “Stabilization of brain natriuretic peptide (BNP) in blood samples, methods and compositions related thereto” (priority 2002, published 2004)
